According to patent US8246999B2, “Capped mesoporous silicates” (Iowa State University Research Foundation, Inc., priority 2003, dated 2012):
Entries after “also recorded” stand apart in the source; their conditions may differ. Structures can show the parent of a compound that is named as a salt.

Legend:
[1] = Loading of vancomycin and ATP into linker-MSN and capping with CdS (HPLC of filtrate); format: physicochemical; details: for amount of mesopore-encapsulated molecule per 100.0 mg of linker-MSN material: CdS-capped MSN, calculated from concentration decrease in filtrate, HPLC; for loading efficiency: CdS-capped linker-MSN
Procedure: Purified linker-MSN material from sub-part (b) below (100.00 mg) was incubated in a PBS buffer solution (0.60 mL, pH 7.4) of ATP or vancomycin (3.00 μmol in both cases) for 24 hours. Mercaptoacetic acid-functionalized CdS nanoparticles from sub-part (c) below (0.15 mmol) were dissolved in 2.00 mL of PBS buffer with vancomycin or ATP (0.01 mmol in both cases); 1-[3-(dimethylamino)propyl]-3-ethylcarbodiimide hydrochloride (EDC) (57.50 mg, 0.30 mmol) was added to the CdS/drug solution. The reaction mixture was allowed to stir for 24 hours, followed by centrifuging the suspension at 12 000 rpm for 3 minutes. The resulting precipitates (ATP- or vancomycin-loaded, CdS-capped MSNs) were isolated and dried under vacuum.
The resulting reaction suspensions were centrifuged, and the CdS-capped MSN/drug composite materials along with the unreacted CdS nanoparticles were filtered. The concentrations of the free vancomycin and ATP molecules in the filtrate were then determined by HPLC. The calculated concentration decreases of solution vancomycin and ATP were attributed to the amounts of mesopore-encapsulated vancomycin (2.5 μmol) and ATP (4.7 μmol) per 100.0 mg of linker-MSN material. These numbers correspond to ca. 83.9 and 30.3 mol % loading efficiency, respectively.

[2] = DTT-induced drug/neurotransmitter release study from CdS-capped MSN (HPLC); format: physicochemical; details: for amount released / portion of encapsulated molecules released: after 3 days of DTT-induced uncapping; for release as share of the total release seen in 3 days: within 24 hours after introduction of 18.5 mM DTT
Procedure: CdS-capped MSN with vancomycin or ATP (10.00 mg) material was dispersed in 1.50 mL of PBS buffer (pH 7.4), followed by repeating wash/sonication/centrifugation cycles for five times to remove physisorbed, uncapped vancomycin or ATP molecules on the exterior surface of the material. The purified MSN/drug composite was redispersed in 3.50 mL of PBS buffer (pH 7.4). Aliquots were taken every 4 hours over a time period of 12 hours from the MSN/water suspension and injected to an analytical HPLC system (Hitachi LC/3DQMS with a reverse phase C18 column (Vydac), 0.4 cm×25 cm) to monitor the leaching of the mesoporous channel encapsulated vancomycin or ATP molecules. After 12 hours, dithiothreitol (DTT, 18.50 mM) was added to the suspension to cleave the disulfide linkage between the CdS nanoparticle and the MSN. The kinetic profiles of the DTT-induced release of vancomycin and ATP were monitored by following two literature-reported HPLC separation conditions. The peaks/areas at 280 and 258 nm were monitored/integrated for the quantitative analysis of amounts of released vancomycin and ATP, respectively. See Farin, D., et al., J. Pharm. Biomed. Anal. 1998, 18, 367-372; and Veciana-Nogues, M. T., et al., Food Chem. 1997, 59, 467-472.

astrocytes = format: cell-based, rat
Procedure: • (i) Wistar rats, raised at Iowa State University, were used for these experiments. Animal care and experimental protocols were in accordance with the guidelines and approval of the Iowa State University Committee on Animal Care. • (ii) Cell Cultures. Enriched primary astrocyte cultures from neonatal (P0 to P3) rat cerebral cortex were prepared as previously described by Jeremic, A., et al., J. Neurochem. 2001, 77, 664-675. Briefly, freshly dissected cortical tissues from three animals were incubated 50 minutes at 37° C. in 2.00 mL of Earle's balanced salt solution (EBSS; Gibco-Invitrogen Co.) containing papain (1.54 mg/mL; Sigma-Aldrich Co.). After incubation, tissue was rinsed with EBSS solution and incubated for 5 minutes in trypsin-inhibitor solution (1 mg/mL; Gibco-Invitrogen Co.). After being rinsed, once with EBSS solution and once with culture medium (consisting of α-minimum essential medium (α-MEM; Gibco-Invitrogen Co.) supplemented with 10% heat-inactivated fetal bovine serum (FBS; Gibco-Invitrogen Co.) and 1.00 mL of penicillin-streptomycin solution (Sigma-Aldrich Co.) per 100 mL), the tissue was mechanically dispersed in culture medium by triturating through a fire-polished glass pipet. The cell suspension was transferred to sterile 15-mL centrifuge tubes and spun at 1000 g for 10 minutes. Cell pellets were resuspended in culture medium (α-MEM supplemented with 10% heat-inactivated FBS and 1.00 mL of penicillin-streptomycin solution per 100.00 mL) and plated in culture flasks. Cells were maintained at 37° C. in a humidified 5% CO2/95% air atmosphere. Culture medium was changed every 2 to 3 days. When mixed cultures reached confluence (9-12 days), the flasks were shaken (260 rpm) for 90 minutes to remove microglia and dividing type I astroglia. After shaking the cells, medium was replaced, and the flasks were incubated for 1 hour to equilibrate with CO2 in the fresh medium. Cultures were then shaken overnight (12-18 hours) at 260 rpm at 37° C. Cultures enriched in type I astroglia were obtained by trypsinizing (0.25%; Sigma-Aldrich Co.) attached cells for 5 minutes. […]

[3] = literature reports; cited from earlier work

Nc1ncnc2c1ncn2[C@@H]1O[C@H](COP(=O)([O-])OP(=O)([O-])OP(=O)(O)O)[C@@H](O)[C@H]1O.[Na+].[Na+] [ATP, adenosine triphosphate disodium salt]
amount of mesopore-encapsulated molecule per 100.0 mg of linker-MSN material [1]: 4.7 µmol | loading efficiency [1]: ~30.3 mol % | amount released [2]: 1.3 µmol | portion of encapsulated molecules released [2]: 28.2% | release as share of the total release seen in 3 days [2]: 85% | [Ca^2+]i response of astrocytes to ATP (astrocytes; 100.0 μM ATP perfusion, no MSNs, ME-treated astrocytes, triphosphate disodium salt): obvious increases in [Ca^2+]i | [Ca^2+]i response of astrocytes to ATP in presence of empty capped MSNs (astrocytes; 100.0 μM ATP perfusion, CdS-capped MSNs without ATP encapsulation present, triphosphate disodium salt): [Ca^2+]i increased; also recorded: An increase in [Ca^2+]i

CN[C@H](CC(C)C)C(=O)N[C@H]1C(=O)N[C@@H](CC(N)=O)C(=O)N[C@H]2C(=O)N[C@H]3C(=O)N[C@H](C(=O)N[C@H](C(=O)O)c4cc(O)cc(O)c4-c4cc3ccc4O)[C@H](O)c3ccc(c(Cl)c3)Oc3cc2cc(c3O[C@@H]2O[C@H](CO)[C@@H](O)[C@H](O)[C@H]2O[C@H]2C[C@](C)(N)[C@H](O)[C@H](C)O2)Oc2ccc(cc2Cl)[C@H]1O [vancomycin, Vancomycin hydrochloride]
amount of mesopore-encapsulated molecule per 100.0 mg of linker-MSN material [1]: 2.5 µmol | loading efficiency [1]: ca. 83.9 mol % | amount released [2]: 1.6 µmol | portion of encapsulated molecules released [2]: 53.8% | release as share of the total release seen in 3 days [2]: 85% | isoelectric point (pI) [3]: 8.3

OCCS [ME]
[Ca^2+]i response of astrocytes to ME (astrocytes; ME 1.0 mM for 5 minutes, without MSNs): no increase in [Ca^2+]; also recorded: failed to produce any [Ca^2+]i response
